This passage reports Bmax results from patent US20070037179A1, “Methods of diagnosing and prognosticating solid tumors and melanoma” (priority 2004, published 2007).

Assay [1] concerns the target T1, A3 adenosine receptors (Homo sapiens, UniProt P0DMS8).
T1 sequence (P0DMS8 1-318): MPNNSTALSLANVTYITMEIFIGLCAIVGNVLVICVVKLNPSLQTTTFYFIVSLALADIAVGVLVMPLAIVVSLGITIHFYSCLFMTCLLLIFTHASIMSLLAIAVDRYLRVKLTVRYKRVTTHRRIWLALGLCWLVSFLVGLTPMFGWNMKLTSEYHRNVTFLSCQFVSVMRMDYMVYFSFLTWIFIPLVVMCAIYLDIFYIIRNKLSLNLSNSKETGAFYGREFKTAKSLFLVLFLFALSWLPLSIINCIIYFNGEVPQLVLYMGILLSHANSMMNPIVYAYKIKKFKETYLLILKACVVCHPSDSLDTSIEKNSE
The assay can be described thus: [3H]MRE 3008F20 saturation binding to colonic membranes. Also noted: Colon cancer tissues and related mucosa were homogenized in PBS buffer with a Polytron (Kinematica) and centrifuged; from tissue; host or cells: surgical specimens of human colorectal carcinoma, adenoma and adjacent/remote normal colonic mucosa. As to the method: PREPARATION OF COLONIC MEMBRANE SUSPENSIONS. Colon cancer tissues and related mucosa were homogenized in PBS buffer with a Polytron (Kinematica) and centrifuged for 15 min at 48,000 g. The membrane pellet was resuspended in 50 mM Tris/HCl buffer pH 7.4 (50 mM Tris/HCl, 10 mM MgCl2, 1 mM EDTA) and incubated with 3 IU/ml of adenosine deaminase for 30 min at 37° C. This suspension was used for binding experiments.
(§1) Non-specific binding was determined in the presence of 1 μM MRE 3008F20. Bound and free radioactivity were separated, after an incubation time of 120 min at 4° C., by filtering the assay mixture using a Brandel cell harvester. The protein concentration was determined according to a Bio Rad method (26). Binding to A1 and A2A adenosine receptors was performed using [^3H]1,3-dipropyl-8-cyclopentyl-xanthine ([^3H]DPCPX) and [^3H]4-(2-[7-amino-2-(2-furyl)-[1,2,4]triazolo-[2,32][1,3,6]triazinyl-amino]ethyl)-phenol ([^3H]ZM 241385), respectively, as previously described (16, 24).
(§2) Data and statistical analysis. A weighted nonlinear least squares curve fitting program, LIGAND was used for computer analysis of the data from saturation experiments (28). Significant differences between control and patients with colorectal cancer were assessed using Student's t-test or analysis of variance (ANOVA) and the Dunnett's test when required. P<0.05 was considered significant. All data are reported as means±SEM.

Assay [2] concerns the target T1, A3 adenosine receptors. The assay can be described thus: [3H]MRE 3008F20 saturation binding to membranes of peripheral blood lymphocytes and neutrophils. Also noted: endogenous in cells; host or cells: neutrophils and lymphocytes from peripheral venous blood of colorectal cancer patients and healthy volunteers. As to conditions: N=3. How it is done: as §1, §2

For the compound `CCCn1cc2c(nc(NC(=O)Nc3ccc(OC)cc3)n3nc(-c4ccco4)nc23)n1` [[^3H]MRE 3008F20, 5-N-(4-methoxyphenyl-carbamoyl)amino-8-propyl-2(2furyl)-pyrazolo-[4,3 e]-1,2,4-triazolo [1,5-c]pyrimidine], the Bmax on A3 adenosine receptors [1] (adjacent normal (AN) mucosa, 2 cm from tumor) is recorded as 295±20 fmol/mg of protein; on A3 adenosine receptors [1] (colonic membranes from 14 patients operated for non-neoplastic large bowel disease), 163±10 fmol/mg of protein; on A3 adenosine receptors [1] (large adenomas with high-grade dysplasia, N=4), 302±15 fmol/mg of protein; at A3 adenosine receptors [1] (remote normal (RN) mucosa, 10 cm from tumor) it was 196±10 fmol/mg of protein; on A3 adenosine receptors [1] (small adenomas with low-grade dysplasia, N=4), 155±24 fmol/mg of protein; on A3 adenosine receptors [1] (tumor tissues, 73 primary colorectal carcinomas, mean±SEM) it was 584±35 fmol/mg of protein. The Bmax is reported as 106±15 fmol/mg of protein at A3 adenosine receptors [2] (lymphocytes of patients with small adenomas) and 547±77 fmol/mg of protein on A3 adenosine receptors [2] (neutrophils of patients with small adenomas).
